# pIC50: −log10 of the molar value.
# Experiments:
# [1] = test system: bovine serum albumin (BSA); test: Fluorescamine assay of free primary amino groups of BSA incubated with D-ribose; type: biochemical; conditions: free primary amino group on BSA after 5 days at 37° C.; agent at 16.8 times IC50; 64% without agent
# lysozyme = test: ESI-MS of lysozyme glycoforms after incubation with D-ribose; conditions: 37° C., 5 days; for Peak area as % of total area of all glycoforms, 14,569: lysozyme + 2D-ribose − 2H2O (14,569 Da); for Peak area as % of total area of all glycoforms, 14,551: lysozyme + 2D-ribose − 3H2O (14,551 Da); for Peak area as % of total area of all glycoforms, 14,533: lysozyme + 2D-ribose − 5H2O (14,533 Da); for Peak area as % of total area of all glycoforms, 14,515: lysozyme + 2D-ribose − 6H2O (14,515 Da); for Peak area as % of total area of all glycoforms, 14,419: lysozyme + D-ribose − 2H2O (14,419 Da); for Peak area as % of total area of all glycoforms, 14,401: lysozyme + D-ribose − 3H2O (14,401 Da); for Peak area as % of total area of all glycoforms, 14,437: lysozyme + D-ribose − H2O (14,437 Da); for Peak area as % of total area of all glycoforms, 14,496: lysozyme + D-ribose − H2O with one carboxymethylated Lys residue (14,496 Da); for Peak area as % of total area of all glycoforms, 14,364: lysozyme with one carboxymethylated Lys residue (14,364 Da); for Peak area as % of total area of all glycoforms, 14,305: unmodified lysozyme (14,305 Da);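 as to all read-outs here: lysozyme incubated with D-ribose, with or without anti-glycation agents, then separated by reversed-phase HPLC and analysed by electrospray mass spectrometry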
# Method: The effect of anti-glycation agents on the accumulation of glycated forms (glycoforms) of protein was evaluated by using electrospray mass spectrometry (ESI-MS). As the molecular mass of BSA was too large to monitor the small mass changes of its glycoforms, lysozyme was incubated with D-ribose and anti-glycants. Lysozyme and its glycoforms were isolated by RP-HPLC and analyzed by mass spectrometry.
# Samples of lysozyme (0.756 mM; 4.54 mM of Lys residues) and D-ribose (50 mM) were incubated in the presence and absence of the selected anti-glycation agents at 37° C. for 5 days and subjected to electrospray mass spectrometry (ESI-MS) in order to characterize the protein intermediates as well as carboxymethylated lysozyme. Prior to MS measurements, the proteins were isolated by reversed phase-HPLC and were semi-dried by freeze drying.
# [2] = test system: bovine serum albumin (BSA); test: Maillard fluorescence-based assay of AGEs formation, IC50 determination (BSA + D-ribose); conditions: inhibition of Maillard fluorescence development; 0.075 mM BSA, 50 mM D-ribose, 37° C., 5 days
# Method: During the glycation reaction between proteins and reducing sugars, a specific fluorescence with excitation and emission wavelength of 370 nm and 440 nm, respectively, is observed. […] The assay was based on the progressive development of the characteristic Maillard fluorescence (370 nm Ex and 440 nm Em) during the progress of the glycation reaction.
# The final assay volume was 200 μl and each assay well contained 0.075 mM BSA, and 50 mM D-ribose. Compounds were assayed at 3 different concentration levels (0.003, 0.03, and 0.3 mg/mL) to determine the effect of concentration on inhibition. Samples were incubated for 5 days.
# The Maillard fluorescence was directly measured from the reaction solution, except for the anti-glycants that quenched the Maillard fluorescence, which were analyzed by the earlier-described HPLC method.
# Solutions were incubated in microtitre plates (96 wells) at 37° C. for 5 days in a closed system.
# After one hour incubation at 37° C., fluorescence readings were taken.
# The IC50 values of the compounds that quenched the fluorescence of the glycated BSA were analyzed by on-line monitoring of the fluorescence of the glycated BSA separated from the fluorescence quenching assay compound by RP-HPLC. The elution profile was monitored by UV-diode array and by fluorescence (λex=370 nm, λem=440 nm). […] The incubation conditions were the same as above.
Compound,Unreacted amino group [1] [%],"Peak area as % of total area of all glycoforms, 14,569 (lysozyme) [%]","Peak area as % of total area of all glycoforms, 14,551 (lysozyme) [%]","Peak area as % of total area of all glycoforms, 14,533 (lysozyme) [%]","Peak area as % of total area of all glycoforms, 14,515 (lysozyme) [%]","Peak area as % of total area of all glycoforms, 14,419 (lysozyme) [%]","Peak area as % of total area of all glycoforms, 14,401 (lysozyme) [%]","Peak area as % of total area of all glycoforms, 14,437 (lysozyme) [%]","Peak area as % of total area of all glycoforms, 14,496 (lysozyme) [%]","Peak area as % of total area of all glycoforms, 14,364 (lysozyme) [%]","Peak area as % of total area of all glycoforms, 14,305 (lysozyme) [%]",pIC50 [2]
"O=c1cc(-c2ccc(O)c(O)c2)oc2c(O)c(O)ccc12 [7,8,3′,4′-Tetrahydroxyflavone]",56,1.6,0.6,0.0,0.0,3.0,0.0,15.9,0.8,2.0,76.2,3.82
O=C1C[C@@H](c2ccc(O)c(O)c2)Oc2cc(O)cc(O)c21 [Eriodictyol],43,3.1,1.6,1.1,0.0,5.0,0.4,20.2,0.0,1.9,66.7,3.60
Oc1cc(O)c2c(c1)O[C@H](c1ccc(O)c(O)c1)[C@@H](O)C2 [(+)-Catechin],66,2.8,1.4,1.2,0.0,4.0,0.0,19.7,0.0,2.0,68.9,4.72
CNCC(=O)c1ccc(O)c(O)c1 [Adrenalone],45,3.3,1.3,1.3,1.5,2.5,1.7,17.2,2.2,4.8,59.3,4.24
O=[N+]([O-])c1ccc(O)c2ncccc12 [Nitroxoline],76,1.4,2.1,1.2,1.2,7.8,3.3,11.0,1.0,4.2,66.7,3.52
Kaempferide,49,3.9,4.4,4.0,1.6,8.9,5.4,18.5,0.0,2.5,46.7,3.55
